{
  "source": "patent US6287813A",
  "about": "“Antibiotic-based gene regulation system” (Cistronics Cell Technology GmbH, priority 1999, dated 2001)",
  "key": {"PIT2 (Pip-p65)/PPIR": {"target": "T1, PIT2 (Pip-p65)/PPIR (Streptomyces coelicolor, UniProt Q9ADN3)", "T1 construct": "pMF206 with pMF172 (PPIR-SEAP) in CHO-K1", "T1 sequence (Q9ADN3 1-252)": "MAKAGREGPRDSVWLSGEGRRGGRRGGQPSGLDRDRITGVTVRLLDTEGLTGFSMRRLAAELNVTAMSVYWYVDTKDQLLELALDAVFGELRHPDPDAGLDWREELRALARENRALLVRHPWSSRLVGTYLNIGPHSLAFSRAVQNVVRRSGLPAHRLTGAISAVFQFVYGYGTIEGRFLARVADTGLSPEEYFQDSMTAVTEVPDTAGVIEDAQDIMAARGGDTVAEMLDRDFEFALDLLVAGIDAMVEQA", "assay": "SEAP reporter assay, CHO-K1 cotransfected with pMF206 (PIT2; Pip-p65) and pMF172 (PPIR-SEAP)", "assay_type": "cell-based", "details": "+PI (2 μg/ml), 48 hr post transfection", "from_the_text": "PIT2, the fusion protein of Pip and the p65 transactivation domain of the human NF-κB transcription activator was cloned in a three step procedure: (i) The p65 domain of the human NF-κB transcription activator was amplified from pSG424-p65 (kindly provided by H. Hauser, GBF, Braunschweig, Germany) with oligos OMF97:\nChinese hamster ovary cells (CHO-K1, ATCC: CCL 61), Baby hamster kidney cells (BHK-21, ATCC: CRL-8544), and HeLa cells (ATCC: CRL-7923) as well as stable cell lines CHO-PIT1, CHO-PIT2, CHO-TWIN195, CHO-TWIN1108 and CHO-PIT1-SEAP were cultured as described before (Fussenegger et al., 1998, Nat. Biotechnol. 16,468-472) in the presence of appropriate antibiotics: G418 400 μg/ml; zeocin 100 μg/ml. Optimized CaPO4 protocols were used for high efficiency transient transfection of all cell lines (id). Transient transfected cells were routinely analyzed after 48 h for GFP or SEAP expression using fluorescence microscopy and p-nitrophenolphosphate-based light absorbance timecourse, respectively, as described before (Fussenegger et al., 1998, Nat. Biotechnol. 16, 468-472; Berger et al., 1988, Gene 66, 1-10 b). […]\nIn addition, pMF206 (PIT2; Pip-p65) was cotransfected with pMF172 (PPIR -SEAP) and the SEAP readout in the absence and presence of PI (2 μg/ml) was directly compared to CHO-K1 cells cotransfected with pMF156 (PIT; Pip-VP16) and pMF172 (PPIR -SEAP). […]"}, "PIT/PPIR system": {"target": "T2, PIT/PPIR system (Streptomyces coelicolor, UniProt Q9ADN3)", "T2 construct": "pMF156/pTWIN in CHO cells, PPIR-SEAP or GFP reporter", "T2 sequence (Q9ADN3 1-252)": "T1 sequence (Q9ADN3 1-252)", "assay": "SEAP reporter assay, stable CHO-PIT1/CHO-PIT2 transiently transfected with pMF172", "assay_type": "cell-based", "procedure": "Chinese hamster ovary cells (CHO-K1, ATCC: CCL 61), Baby hamster kidney cells (BHK-21, ATCC: CRL-8544), and HeLa cells (ATCC: CRL-7923) as well as stable cell lines CHO-PIT1, CHO-PIT2, CHO-TWIN195, CHO-TWIN1108 and CHO-PIT1-SEAP were cultured as described before (Fussenegger et al., 1998, Nat. Biotechnol. 16,468-472) in the presence of appropriate antibiotics: G418 400 μg/ml; zeocin 100 μg/ml. Optimized CaPO4 protocols were used for high efficiency transient transfection of all cell lines (id). Transient transfected cells were routinely analyzed after 48 h for GFP or SEAP expression using fluorescence microscopy and p-nitrophenolphosphate-based light absorbance timecourse, respectively, as described before (Fussenegger et al., 1998, Nat. Biotechnol. 16, 468-472; Berger et al., 1988, Gene 66, 1-10 b). For construction of stable CHO-PIT and CHO-TWIN cell lines, CHO-K1 was cotransfected either with pMF156 or pTWIN1 and pSV2neo carrying the G418 resistance gene. CHO-PIT1-SEAP was constructed by cotransfection of pMF172 and pZeoSV2 (Invitrogen). For assessment of dose-response characteristics of PPIR -regulated gene expression, CHO-PIT1-SEAP were cultured at cell densities of 150,000/ml for 48 at various PI concentrations. The mixed populations were cloned using FACS-mediated single-cell-sorting (FACStar^Plus; Beckton Dickinson). Gel retardation assay were performed as described (Salah-Bey et al., 1995, supra) using Pip purified from an overproducing strain of E. coli. Pip (0.02 pmol) was titrated with a range of antibiotic concentrations in a reaction volume of 20 μl. Protein solutions were pre-incubated at room temperature for 15 min. in the absence or presence of PI or its derivative quinupristin in a buffer containing 10 mM Tris (pH 7.8), 10 mM MgCl2, 300 mM NaCl, 2 mM DTT and 10% glycerol. An EcoRI-HindII PPTR fragment (0.02 pmol) containing three Pip binding sites (radiolabelled using α-^32 P)dATP was added and incubated for 15 min. To minimize nonspecific protein binding and increase protein stability, 2 μg of poly dIdC and 20 μg BSA were included in the incubation mix. Protein-DNA complexes were separated on 5% polyacrylamide,TBE gels and visualized by autoradiography.\nFive different sources of pristinamycin were used: The two therapeutic forms Pyostacin™ and Synercid™, pristinamycin discs, and the single compounds pristinamycin I (PI) and pristinamycin II (PII). Pyostacin™ pills (500 mg) were ground in a mortar and solubilized in DMSO or water at a stock concentration of 50 mg/ml. Synercid™ (RP 59500; Lot Nr. CB06253) was provided by Aventis in injection-ready vials containing 500 mg lyophilized antibiotic which was reconstituted in 5 ml of 5% glucose solution and frozen at -20° C. Individual pristinamycin compounds PI and PII (identical to virginiamycin M1 (VM1); Sigma ref. V2753) were solubilized in DMSO at a concentration of 50 mg/ml and kept at -20° C. Antibiotic discs containing 15 μg pristinamycin or virginiamycin (bioMerieux, ref. 54552; bioMerieux, ref. 54612) were soaked in 1 ml cell culture medium at 4i C for up to 24 h. Virginiamycin consists of virginiamnycin S1 (VS1), the PI analogue, and virginiamycin M1, which is identical in structure to PII (Barri re et al., 1994, supra). 2 μg/ml of streptogramin B was routinely used for regulation studies in cell culture. The concentration of individual streptogramin components was calculated based on their fixed 70:30 ratio (w/w; PII/VM1 /dalfopristin: PI/VS1 /quinupristin). For control experiments TET and doxycycline (DOX) were used either as discs (30 μg/disc, bioM.quadrature.rieux ref. 54882 (TET) and ref. 54172 (DOX)) or as powder (Sigma refs. T3383 and D9891).\nTable 4: Pristinamycin I- (PI) dependent SEAP production of PIT- (PI-dependent transactivator) expressing stable cell lines CHO-PIT1 and CHO-PIT2 transiently transfected with the SEAP-encoding, PI-responsive reporter plasmid pMF172.\nTable 5: Regulation potential of different streptogramins. […]"}},
  "data": [
    {"substance": "pristinamycin I [PI]", "values": [
      {"measurement": "SEAP readout (slope of the p-nitrophenolphosphate-based light absorbance time courses)", "setting": "PIT2 (Pip-p65)/PPIR", "result": "0.31 ± 0.003"},
      {"measurement": "Induction factor (ratio of SEAP activity without PI to SEAP activity with PI)", "setting": "PIT/PPIR system; CHO-PIT1", "result": 13},
      {"measurement": "SEAP Production (%)", "setting": "PIT/PPIR system; CHO-PIT1 + pMF172, 48 h, 2 μg/ml of group B component, no streptogramin = 100", "result": "8.06 ± 0.05", "unit": "%"},
      {"measurement": "SEAP Production (%)", "setting": "PIT/PPIR system; CHO-PIT1 + pMF172, +PI 2 μg/ml, -PI = 100", "result": "7.50 ± 2.32", "unit": "%"},
      {"measurement": "Induction factor (ratio of SEAP activity without PI to SEAP activity with PI)", "setting": "PIT/PPIR system; CHO-PIT2", "result": 8},
      {"measurement": "SEAP Production (%)", "setting": "PIT/PPIR system; CHO-PIT2 + pMF172, +PI 2 μg/ml, -PI = 100", "result": "12.7 ± 3.57", "unit": "%"},
      {"measurement": "Reversibility of PI-responsive SEAP regulation", "setting": "PIT/PPIR system; CHO-PIT derivatives, repeated cycles of addition and withdrawal", "result": "fully reversible"}
    ]}
  ]
}
